In patent US20230233569A1 (Revolution Medicines, Inc., priority 2020, published 2023):
Read-outs that look alike come from different tables or passages of the source.

Experiments:
Test in all cases: Ras-Raf disruption / FRET / MOA assay (BRAF RBD)
Assay type in all cases: biochemical
KRAS G13C = KRAS G13C (Homo sapiens, UniProt P01116+P62937, G13C); conditions: with Cyclophilin A
How it was run: (§1)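 TR-FRET in 25 mM HEPES pH 7.3, 100 mM NaCl, 5 mM MgCl2, 0.1% BSA, 0.002% Tween20 with 25 μM Cyclophilin A, 12.5 nM His6-Ras-GMPPNP, 50 nM GST-BRAF RBD; compound 10-point 3-fold series from 30 μM. After 3 h at 25 °C, Eu anti-His/APC anti-GST added for 1.5 h; IC50 from ratio decrease versus DMSO.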

KRAS WT = KRAS WT (Homo sapiens, UniProt P01116+P62937); conditions: with Cyclophilin A
How it was run: as §1

KRAS G12V = KRAS G12V (Homo sapiens, UniProt P01116+P62937, G12V); conditions: with Cyclophilin A
How it was run: as §1

NRAS WT = NRAS WT (Homo sapiens, UniProt P01111+P62937)
How it was run: as §1

KRAS G13D = KRAS G13D (Homo sapiens, UniProt P01116+P62937, G13D); conditions: with Cyclophilin A
How it was run: as §1

NRAS G12C = NRAS G12C (Homo sapiens, UniProt P01111+P62937, G12C)
How it was run: as §1

KRAS G12D = KRAS G12D (Homo sapiens, UniProt P01116+P62937, G12D); conditions: with Cyclophilin A
How it was run: as §1

KRAS Q61H = KRAS Q61H (Homo sapiens, UniProt P01116+P62937, Q61H)
How it was run: as §1

KRAS G12S = KRAS G12S (Homo sapiens, UniProt P01116+P62937, G12S); conditions: with Cyclophilin A
How it was run: as §1

NRAS Q61R = NRAS Q61R (Homo sapiens, UniProt P01111+P62937, Q61R)
How it was run: as §1

NRAS Q61K = NRAS Q61K (Homo sapiens, UniProt P01111+P62937, Q61K)
How it was run: as §1

KRAS G12C = KRAS G12C (Homo sapiens, UniProt P01116+P62937, G12C); conditions: with Cyclophilin A
How it was run: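 His6-K-Ras G12C-GMPPNP (12.5 nM), GST-BRAF RBD (50 nM) and tagless Cyclophilin A (25 μM) incubated 3 h at 25 °C with compound (10-point 3-fold series from 30 μM), pH 7.3 HEPES buffer. Anti-His Eu/anti-GST APC added for 1.5 h; decreased TR-FRET ratio vs DMSO gives IC50.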

[1] = Ras-Raf disruption, read-out: KRAS G13C FRET data IC50
[2] = Ras-Raf disruption, read-out: KRAS WT FRET data IC50
[3] = Ras-Raf disruption, read-out: KRAS G12V FRET data IC50
[4] = NRAS WT, read-out: NRAS WT FRET data IC50
[5] = Ras-Raf disruption, read-out: KRAS G13D FRET data IC50
[6] = NRAS G12C, read-out: NRAS G12C FRET data IC50
[7] = Ras-Raf disruption, read-out: KRAS G12D FRET data IC50
[8] = KRAS Q61H, read-out: KRAS Q61H FRET data IC50
[9] = Ras-Raf disruption, read-out: KRAS G12S FRET data IC50
[10] = NRAS Q61R, read-out: NRAS Q61R FRET data IC50
[11] = NRAS Q61K, read-out: NRAS Q61K FRET data IC50
[12] = Ras-Raf disruption, read-out: KRAS G12C FRET data IC50
[13] = KRAS G13C FRET data IC50, Ras-Raf disruption
[14] = KRAS WT FRET data IC50, Ras-Raf disruption
[15] = KRAS G12V FRET data IC50, Ras-Raf disruption
[16] = KRAS G13D FRET data IC50, Ras-Raf disruption
[17] = NRAS G12C FRET data IC50, NRAS G12C
[18] = KRAS G12D FRET data IC50, Ras-Raf disruption
[19] = KRAS G12S FRET data IC50, Ras-Raf disruption
[20] = KRAS G12C FRET data IC50, Ras-Raf disruption

Chain of KRAS Q61H (P01116 1-169 isoform P01116-2 Q61H limits assumed): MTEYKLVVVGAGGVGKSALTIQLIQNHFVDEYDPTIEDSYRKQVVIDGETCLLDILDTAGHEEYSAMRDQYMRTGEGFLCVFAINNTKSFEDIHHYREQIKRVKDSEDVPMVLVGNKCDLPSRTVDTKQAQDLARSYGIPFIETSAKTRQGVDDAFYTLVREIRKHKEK
Chain of KRAS Q61H (P62937 whole entry): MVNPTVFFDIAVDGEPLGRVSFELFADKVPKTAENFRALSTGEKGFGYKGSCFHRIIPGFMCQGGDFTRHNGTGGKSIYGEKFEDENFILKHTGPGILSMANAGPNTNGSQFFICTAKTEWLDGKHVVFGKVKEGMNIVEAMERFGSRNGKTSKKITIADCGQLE
Chain of KRAS G13C (P01116 1-169 isoform P01116-2 G13C limits assumed): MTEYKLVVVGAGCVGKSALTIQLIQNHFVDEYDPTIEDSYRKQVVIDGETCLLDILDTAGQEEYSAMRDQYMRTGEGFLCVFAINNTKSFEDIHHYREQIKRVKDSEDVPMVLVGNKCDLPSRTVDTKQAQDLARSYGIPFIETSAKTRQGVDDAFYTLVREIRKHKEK
Chain of KRAS G13C (P62937 whole entry): as the sequence (P62937 whole entry) above
Chain of NRAS G12C (P01111 whole entry G12C): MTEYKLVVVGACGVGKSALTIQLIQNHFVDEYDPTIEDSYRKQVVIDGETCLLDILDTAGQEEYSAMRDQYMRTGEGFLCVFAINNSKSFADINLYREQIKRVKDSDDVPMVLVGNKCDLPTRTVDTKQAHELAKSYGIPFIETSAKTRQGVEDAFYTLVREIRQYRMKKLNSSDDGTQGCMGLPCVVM
Chain of NRAS G12C (P62937 whole entry): as the sequence (P62937 whole entry) above
Chain of NRAS Q61K (P01111 whole entry Q61K): as the sequence (P01111 whole entry G12C) above, with C12G, Q61K counted along it
Chain of NRAS Q61K (P62937 whole entry): as the sequence (P62937 whole entry) above
Chain of KRAS G12C (P01116 1-169 isoform P01116-2 G12C limits assumed): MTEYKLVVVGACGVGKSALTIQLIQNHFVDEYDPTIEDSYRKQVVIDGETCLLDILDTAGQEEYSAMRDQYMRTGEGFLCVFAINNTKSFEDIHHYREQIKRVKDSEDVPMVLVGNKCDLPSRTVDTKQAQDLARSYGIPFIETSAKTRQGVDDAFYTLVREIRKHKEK
Chain of KRAS G12C (P62937 whole entry): as the sequence (P62937 whole entry) above
Chain of KRAS G12D (P01116 1-169 isoform P01116-2 G12D limits assumed): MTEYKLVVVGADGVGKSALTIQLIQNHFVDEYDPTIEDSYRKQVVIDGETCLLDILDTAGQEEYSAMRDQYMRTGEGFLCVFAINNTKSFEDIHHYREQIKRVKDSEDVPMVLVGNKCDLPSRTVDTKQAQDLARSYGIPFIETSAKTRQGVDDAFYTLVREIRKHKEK
Chain of KRAS G12D (P62937 whole entry): as the sequence (P62937 whole entry) above
Chain of KRAS WT (P01116 1-169 isoform P01116-2 limits assumed): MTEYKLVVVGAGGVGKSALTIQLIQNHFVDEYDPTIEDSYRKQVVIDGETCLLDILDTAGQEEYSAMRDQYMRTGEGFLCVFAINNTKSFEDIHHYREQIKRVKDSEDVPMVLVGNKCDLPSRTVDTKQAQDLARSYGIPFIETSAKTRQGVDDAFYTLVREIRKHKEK
Chain of KRAS WT (P62937 whole entry): as the sequence (P62937 whole entry) above
Chain of NRAS Q61R (P01111 whole entry Q61R): as the sequence (P01111 whole entry G12C) above, with C12G, Q61R counted along it
Chain of NRAS Q61R (P62937 whole entry): as the sequence (P62937 whole entry) above
Chain of KRAS G12V (P01116 1-169 isoform P01116-2 G12V limits assumed): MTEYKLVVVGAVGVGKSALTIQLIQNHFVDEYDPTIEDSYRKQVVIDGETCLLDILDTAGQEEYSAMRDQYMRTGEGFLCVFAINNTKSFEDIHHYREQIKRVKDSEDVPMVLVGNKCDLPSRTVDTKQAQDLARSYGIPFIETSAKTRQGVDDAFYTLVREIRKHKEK
Chain of KRAS G12V (P62937 whole entry): as the sequence (P62937 whole entry) above
Chain of NRAS WT (P01111 whole entry): as the sequence (P01111 whole entry G12C) above, with C12G counted along it
Chain of NRAS WT (P62937 whole entry): as the sequence (P62937 whole entry) above
Chain of KRAS G13D (P01116 1-169 isoform P01116-2 G13D limits assumed): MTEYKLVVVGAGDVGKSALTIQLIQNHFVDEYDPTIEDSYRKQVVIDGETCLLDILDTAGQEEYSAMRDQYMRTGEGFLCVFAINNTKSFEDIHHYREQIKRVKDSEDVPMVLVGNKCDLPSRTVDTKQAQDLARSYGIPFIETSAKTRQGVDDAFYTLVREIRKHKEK
Chain of KRAS G13D (P62937 whole entry): as the sequence (P62937 whole entry) above
Chain of KRAS G12S (P01116 1-169 isoform P01116-2 G12S limits assumed): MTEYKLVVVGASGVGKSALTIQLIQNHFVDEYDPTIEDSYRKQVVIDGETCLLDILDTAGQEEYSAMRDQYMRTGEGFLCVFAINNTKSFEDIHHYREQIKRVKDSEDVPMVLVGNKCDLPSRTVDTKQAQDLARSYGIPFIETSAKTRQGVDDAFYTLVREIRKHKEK
Chain of KRAS G12S (P62937 whole entry): as the sequence (P62937 whole entry) above

| Compound | IC50 (KRAS G13C; [1]) [nM] | IC50 (KRAS WT; [2]) [nM] | IC50 (KRAS G12V; [3]) [nM] | IC50 (NRAS WT; [4]) [nM] | IC50 (KRAS G13D; [5]) [nM] | IC50 (NRAS G12C; [6]) [nM] | IC50 (KRAS G12D; [7]) [nM] | IC50 (KRAS Q61H; [8]) [nM] | IC50 (KRAS G12S; [9]) [nM] | IC50 (NRAS Q61R; [10]) [nM] | IC50 (NRAS Q61K; [11]) [nM] | IC50 (KRAS G12C; [12]) [nM] | other results |
| --- | --- | --- | --- | --- | --- | --- | --- | --- | --- | --- | --- | --- | --- |
| CCn1c(-c2cccnc2[C@H](C)OC)c2c3cc(ccc31)-c1csc(n1)C[C@H](NC(=O)[C@H](C(C)C)N(C)C(=O)N(C)CC1CN(C(=O)[C@H]3CN3)C1)C(=O)N1CCC[C@H](N1)C(=O)OCC(C)(C)C2 (atropisomer, axis not shown) [Example 293] | 100 to 1000 | 100 to 1000 | 100 to 1000 | 100 to 1000 | 100 to 1000 | 10 to 100 | 100 to 1000 | 10 to 100 | 100 to 1000 | 100 to 1000 | 10 to 100 | 10 to 100 | – |
| CCn1c(-c2cccnc2[C@H](C)OC)c2c3cc(ccc31)-c1csc(n1)C[C@H](NC(=O)[C@H](C(C)C)N(C)C(=O)N(C)CCN(C)C(=O)[C@@H]1CN1)C(=O)N1CCC[C@H](N1)C(=O)OCC(C)(C)C2 (atropisomer, axis not shown) [Example 217] | 100 to 1000 | 100 to 1000 | 100 to 1000 | 10 to 100 | 100 to 1000 | 10 to 100 | 100 to 1000 | 10 to 100 | 100 to 1000 | 100 to 1000 | 10 to 100 | 10 to 100 | – |
| CCn1c(-c2cccnc2[C@H](C)OC)c2c3cc(ccc31)-c1csc(n1)C[C@H](NC(=O)[C@H](C(C)C)N(C)C(=O)N1CCN(C(=O)[C@@H]3CN3)[C@H](C)C1)C(=O)N1CCC[C@H](N1)C(=O)OCC(C)(C)C2 [Example 300] | 100 to 1000 | 100 to 1000 | 100 to 1000 | 100 to 1000 | 100 to 1000 | 10 to 100 | 100 to 1000 | 10 to 100 | 100 to 1000 | 100 to 1000 | 10 to 100 | 100 to 1000 | – |
| CCn1c(-c2cccnc2[C@H](C)OC)c2c3cc(ccc31)-c1csc(n1)C[C@H](NC(=O)[C@H](C(C)C)N(C)C(=O)N1CC[C@@H](N(C)C(=O)[C@H]3CN3)C1)C(=O)N1CCC[C@H](N1)C(=O)OCC(C)(C)C2 (atropisomer, axis not shown) [Example 226] | 100 to 1000 | 100 to 1000 | 100 to 1000 | 100 to 1000 | 100 to 1000 | 100 to 1000 | 1000 to 10000 | 100 to 1000 | 100 to 1000 | 100 to 1000 | 100 to 1000 | 100 to 1000 | – |
| CCn1c(-c2cccnc2[C@H](C)OC)c2c3cc(ccc31)-c1cc(O)cc(c1)C[C@H](NC(=O)[C@H](C(C)C)N(C)C(=O)[C@H]1CCN(C(=O)C3(C)CO3)C1)C(=O)N1CCC[C@H](N1)C(=O)OCC(C)(C)C2 (stereo partly drawn) [Example 332] | 10 to 100 | 10 to 100 | 10 to 100 | 10 to 100 | 10 to 100 | 10 to 100 | 100 to 1000 | 10 to 100 | 10 to 100 | 100 to 1000 | 100 to 1000 | 10 to 100 | – |
| CCn1c(-c2cccnc2[C@H](C)OC)c2c3cc(ccc31)-c1cc(O)cc(c1)C[C@H](NC(=O)[C@H](C1CCCC1)N(C)C(=O)CN(C)C(=O)[C@H]1N[C@H]1C1(F)CC1)C(=O)N1CCC[C@H](N1)C(=O)OCC(C)(C)C2 [Example 315] | – | – | – | – | – | – | – | – | – | – | – | – | IC50 (KRAS G13C; [13]): 10 to 100 nM; IC50 (KRAS WT; [14]): 10 to 100 nM; IC50 (KRAS G12V; [15]): 10 to 100 nM; IC50 (NRAS WT): < 10 nM; IC50 (KRAS G13D; [16]): 10 to 100 nM; IC50 (NRAS G12C; [17]): 10 to 100 nM; IC50 (KRAS G12D; [18]): 10 to 100 nM; IC50 (KRAS Q61H): 10 to 100 nM; IC50 (KRAS G12S; [19]): 10 to 100 nM; IC50 (NRAS Q61R): 100 to 1000 nM; IC50 (NRAS Q61K): 10 to 100 nM; IC50 (KRAS G12C; [20]): 10 to 100 nM |
| CCn1c(-c2cccnc2[C@H](C)OC)c2c3cc(ccc31)-c1cc(O)cc(c1)C[C@H](NC(=O)[C@H](C(C)C)N(C)C(=O)[C@@H]1CCCN(C(=O)[C@@H]3CN3)C1)C(=O)N1CCC[C@H](N1)C(=O)OCC(C)(C)C2 [Example 238] | 10 to 100 | 10 to 100 | 100 to 1000 | 10 to 100 | 100 to 1000 | 10 to 100 | 100 to 1000 | 10 to 100 | 10 to 100 | 100 to 1000 | 100 to 1000 | 10 to 100 | – |
| CCn1c(-c2cccnc2[C@H](C)OC)c2c3cc(ccc31)-c1cc(O)cc(c1)C[C@H](NC(=O)[C@H](C(C)C)N(C)C(=O)N1C[C@@H]3[C@H]1CCN3C(=O)[C@@H]1CN1)C(=O)N1CCC[C@H](N1)C(=O)OCC(C)(C)C2 (atropisomer, axis not shown) [Example 251] | 10 to 100 | 100 to 1000 | 100 to 1000 | 100 to 1000 | 1000 to 10000 | 10 to 100 | 1000 to 10000 | 100 to 1000 | 100 to 1000 | 1000 to 10000 | 1000 to 10000 | 10 to 100 | – |
| CCn1c(-c2cccnc2[C@H](C)OC)c2c3cc(ccc31)-c1cc(O)cc(c1)C[C@H](NC(=O)[C@H](C(C)C)N(C)C(=O)N(C)C1CN(C(=O)[C@H]3CN3)C1)C(=O)N1CCC[C@H](N1)C(=O)OCC(C)(C)C2 (atropisomer, axis not shown) [Example 203] | 10 to 100 | 100 to 1000 | 100 to 1000 | 100 to 1000 | 100 to 1000 | < 10 | 100 to 1000 | 10 to 100 | 100 to 1000 | 100 to 1000 | 100 to 1000 | < 10 | – |
| CCn1c(-c2cccnc2[C@H](C)OC)c2c3cc(ccc31)-c1csc(n1)C[C@H](NC(=O)[C@H](C(C)C)N(C)C(=O)N1CC[C@H]1CN(C)C(=O)[C@@H]1CN1)C(=O)N1CCC[C@H](N1)C(=O)OCC(C)(C)C2 [Example 235] | 1000 to 10000 | 1000 to 10000 | 1000 to 10000 | 1000 to 10000 | 1000 to 10000 | 100 to 1000 | 1000 to 10000 | 100 to 1000 | 1000 to 10000 | 1000 to 10000 | 100 to 1000 | 100 to 1000 | – |
| CCn1c(-c2cccnc2[C@H](C)OC)c2c3cc(ccc31)-c1cc(O)cc(c1)C[C@H](NC(=O)[C@H](C1CCCC1)N(C)C(=O)[C@@H](C)N(C)C(=O)[C@@H]1N[C@@H]1C1CC1)C(=O)N1CCC[C@H](N1)C(=O)OCC(C)(C)C2 [Example 327] | – | – | – | – | – | – | – | – | – | – | – | – | IC50 (KRAS G13C; [13]): 1000 to 10000 nM; IC50 (KRAS WT; [14]): 1000 to 10000 nM; IC50 (KRAS G12V; [15]): > 10000 nM; IC50 (NRAS WT): > 10000 nM; IC50 (KRAS G13D; [16]): > 10000 nM; IC50 (NRAS G12C; [17]): 1000 to 10000 nM; IC50 (KRAS G12D; [18]): 1000 to 10000 nM; IC50 (KRAS Q61H): 1000 to 10000 nM; IC50 (KRAS G12S; [19]): > 10000 nM; IC50 (NRAS Q61R): > 10000 nM; IC50 (NRAS Q61K): > 10000 nM; IC50 (KRAS G12C; [20]): 1000 to 10000 nM |
| CCn1c(-c2cccnc2[C@H](C)OC)c2c3cc(ccc31)-c1csc(n1)C[C@H](NC(=O)[C@H](C(C)C)N(C)C(=O)N(C)[C@H]1CCCN(C(=O)[C@H]3CN3)C1)C(=O)N1CCC[C@H](N1)C(=O)OCC(C)(C)C2 (atropisomer, axis not shown) [Example 295] | 1000 to 10000 | 100 to 1000 | 1000 to 10000 | 100 to 1000 | 1000 to 10000 | 100 to 1000 | 1000 to 10000 | 100 to 1000 | 1000 to 10000 | 1000 to 10000 | 100 to 1000 | 100 to 1000 | – |
